Measured values reported in the NIST ThermoML archive (doi:10.1021/je034279l).
Numbers after ± are expanded uncertainties.

How the values were obtained:
[1] = 298.15 K; for surface tension liquid-gas: Pendant drop shape; for mass density: 101.33 kPa, Liquid
[2] = xn = mol fraction of the nth substance listed; details: 298.15 K; for surface tension liquid-gas: Pendant drop shape; for excess molar volume: 101 kPa, Liquid

Cc1ccccc1C [1,2-dimethylbenzene]
[1]
Details | mass density [kg/m3] | surface tension liquid-gas [mN/m]
– | 875.92 ± 0.42 | 29.35 ± 0.39

Cc1ccccc1C [1,2-dimethylbenzene] + CC(C)OC(C)C
[2]
Details | excess molar volume [m3/mol] | surface tension liquid-gas [mN/m]
x2 = 0.0506 | -1.77e-07 ± 2.1e-08 | –
x2 = 0.0997 | -3.15e-07 ± 2.2e-08 | –
x2 = 0.1022 | – | 27.21 ± 0.37
x2 = 0.1501 | -4.49e-07 ± 2.3e-08 | –
x2 = 0.2003 | -5.74e-07 ± 2.3e-08 | –
x2 = 0.201 | – | 25.55 ± 0.36
x2 = 0.2503 | -6.91e-07 ± 2.4e-08 | –
x2 = 0.3003 | -7.82e-07 ± 2.5e-08 | –
x2 = 0.3018 | – | 24.17 ± 0.34
x2 = 0.35 | -8.39e-07 ± 2.5e-08 | –
x2 = 0.4004 | -8.83e-07 ± 2.5e-08 | –
x2 = 0.4037 | – | 23.01 ± 0.33
x2 = 0.4497 | -9.22e-07 ± 2.6e-08 | –
x2 = 0.4997 | – | 22 ± 0.32
x2 = 0.505 | -9.36e-07 ± 2.6e-08 | –
x2 = 0.5505 | -9.48e-07 ± 2.6e-08 | –
x2 = 0.5998 | – | 21.03 ± 0.31
x2 = 0.6001 | -9.1e-07 ± 2.5e-08 | –
x2 = 0.6509 | -8.82e-07 ± 2.5e-08 | –
x2 = 0.7 | -8.11e-07 ± 2.5e-08 | –
x2 = 0.7013 | – | 20 ± 0.3
x2 = 0.7502 | -7.47e-07 ± 2.4e-08 | –
x2 = 0.7987 | – | 19.15 ± 0.29
x2 = 0.7999 | -6.31e-07 ± 2.4e-08 | –
x2 = 0.8502 | -5.11e-07 ± 2.3e-08 | –
x2 = 0.8987 | – | 18.08 ± 0.28
x2 = 0.8997 | -3.69e-07 ± 2.2e-08 | –
x2 = 0.9493 | -2.1e-07 ± 2.1e-08 | –

Cc1ccccc1C [1,2-dimethylbenzene] + COC(C)(C)C
[2]
Details | surface tension liquid-gas [mN/m]
x2 = 0.0997 | 27.9 ± 0.38
x2 = 0.1996 | 26.62 ± 0.37
x2 = 0.3012 | 25.28 ± 0.35
x2 = 0.4008 | 24.14 ± 0.34
x2 = 0.4997 | 23.12 ± 0.33
x2 = 0.6012 | 22.17 ± 0.32
x2 = 0.7002 | 21.3 ± 0.31
x2 = 0.8 | 20.57 ± 0.31
x2 = 0.8999 | 19.78 ± 0.3

Cc1cccc(C)c1 [1,3-dimethylbenzene]
[1]
Details | mass density [kg/m3] | surface tension liquid-gas [mN/m]
– | 859.78 ± 0.49 | 28.36 ± 0.39

Cc1cccc(C)c1 [1,3-dimethylbenzene] + CC(C)OC(C)C
[2]
Details | excess molar volume [m3/mol] | surface tension liquid-gas [mN/m]
x2 = 0.0514 | -1.35e-07 ± 2.1e-08 | –
x2 = 0.1002 | -2.42e-07 ± 2.1e-08 | –
x2 = 0.1019 | – | 26.38 ± 0.37
x2 = 0.1526 | -3.55e-07 ± 2.2e-08 | –
x2 = 0.1997 | -4.41e-07 ± 2.3e-08 | –
x2 = 0.2111 | – | 24.88 ± 0.35
x2 = 0.2501 | -5.2e-07 ± 2.3e-08 | –
x2 = 0.3002 | -5.79e-07 ± 2.3e-08 | 23.72 ± 0.34
x2 = 0.3498 | -6.37e-07 ± 2.4e-08 | –
x2 = 0.3999 | – | 22.67 ± 0.33
x2 = 0.4001 | -6.7e-07 ± 2.4e-08 | –
x2 = 0.4516 | -7.11e-07 ± 2.4e-08 | –
x2 = 0.4991 | – | 21.73 ± 0.32
x2 = 0.5012 | -7.15e-07 ± 2.4e-08 | –
x2 = 0.5509 | -7.18e-07 ± 2.4e-08 | –
x2 = 0.6001 | -6.92e-07 ± 2.4e-08 | –
x2 = 0.6006 | – | 20.86 ± 0.31
x2 = 0.65 | -6.71e-07 ± 2.4e-08 | –
x2 = 0.6944 | -6.17e-07 ± 2.4e-08 | –
x2 = 0.6994 | – | 19.91 ± 0.3
x2 = 0.7498 | -5.58e-07 ± 2.3e-08 | –
x2 = 0.7998 | – | 19.02 ± 0.29
x2 = 0.8005 | -4.77e-07 ± 2.3e-08 | –
x2 = 0.8506 | -3.93e-07 ± 2.2e-08 | –
x2 = 0.8981 | – | 18.12 ± 0.28
x2 = 0.8998 | -2.83e-07 ± 2.2e-08 | –
x2 = 0.95 | -1.64e-07 ± 2.1e-08 | –

Cc1cccc(C)c1 [1,3-dimethylbenzene] + COC(C)(C)C
[2]
Details | surface tension liquid-gas [mN/m]
x2 = 0.1019 | 27.13 ± 0.38
x2 = 0.2019 | 26.05 ± 0.36
x2 = 0.3028 | 24.98 ± 0.35
x2 = 0.4014 | 23.99 ± 0.34
x2 = 0.4996 | 23.01 ± 0.33
x2 = 0.6006 | 22.08 ± 0.32
x2 = 0.7009 | 21.26 ± 0.31
x2 = 0.8001 | 20.49 ± 0.31
x2 = 0.9004 | 19.76 ± 0.3

Cc1ccc(C)cc1 [1,4-dimethylbenzene]
[1]
Details | mass density [kg/m3] | surface tension liquid-gas [mN/m]
– | 856.85 ± 0.46 | 27.89 ± 0.38

COC(C)(C)C [2-methoxy-2-methylpropane]
[1]
Details | mass density [kg/m3] | surface tension liquid-gas [mN/m]
– | 735.48 ± 0.27 | 19.25 ± 0.29

COC(C)(C)C [2-methoxy-2-methylpropane] + Cc1ccc(C)cc1
[2]
Details | surface tension liquid-gas [mN/m]
x1 = 0.1008 | 26.85 ± 0.37
x1 = 0.1998 | 25.81 ± 0.36
x1 = 0.3012 | 24.78 ± 0.35
x1 = 0.4026 | 23.84 ± 0.34
x1 = 0.4997 | 22.96 ± 0.33
x1 = 0.6004 | 22.08 ± 0.32
x1 = 0.6993 | 21.24 ± 0.31
x1 = 0.8 | 20.48 ± 0.3
x1 = 0.9002 | 19.78 ± 0.3

CC(C)OC(C)C [diisopropyl ether]
[1]
Details | mass density [kg/m3] | surface tension liquid-gas [mN/m]
– | 718.38 ± 0.76 | 17.31 ± 0.28

CC(C)OC(C)C [diisopropyl ether] + Cc1ccc(C)cc1
[2]
Details | excess molar volume [m3/mol] | surface tension liquid-gas [mN/m]
x1 = 0.0527 | -1.36e-07 ± 2.1e-08 | –
x1 = 0.0988 | – | 26.3 ± 0.36
x1 = 0.1016 | -2.79e-07 ± 2.2e-08 | –
x1 = 0.15 | -3.98e-07 ± 2.2e-08 | –
x1 = 0.2011 | -5.1e-07 ± 2.3e-08 | –
x1 = 0.2012 | – | 24.84 ± 0.35
x1 = 0.2527 | -5.88e-07 ± 2.4e-08 | –
x1 = 0.2991 | – | 23.73 ± 0.34
x1 = 0.3004 | -6.58e-07 ± 2.4e-08 | –
x1 = 0.3509 | -7.3e-07 ± 2.4e-08 | –
x1 = 0.4007 | -7.61e-07 ± 2.5e-08 | –
x1 = 0.4045 | – | 22.68 ± 0.33
x1 = 0.4506 | -7.85e-07 ± 2.5e-08 | –
x1 = 0.5044 | -8.02e-07 ± 2.5e-08 | –
x1 = 0.5096 | – | 21.66 ± 0.32
x1 = 0.5507 | -7.95e-07 ± 2.5e-08 | –
x1 = 0.6002 | -7.87e-07 ± 2.5e-08 | –
x1 = 0.603 | – | 20.76 ± 0.31
x1 = 0.6498 | -7.56e-07 ± 2.5e-08 | –
x1 = 0.7 | – | 19.91 ± 0.3
x1 = 0.7007 | -7.02e-07 ± 2.4e-08 | –
x1 = 0.7497 | -6.25e-07 ± 2.4e-08 | –
x1 = 0.7987 | – | 19.02 ± 0.29
x1 = 0.7999 | -5.37e-07 ± 2.3e-08 | –
x1 = 0.8512 | -4.32e-07 ± 2.3e-08 | –
x1 = 0.898 | – | 18.18 ± 0.28
x1 = 0.9 | -3.18e-07 ± 2.2e-08 | –
x1 = 0.9507 | -1.78e-07 ± 2.1e-08 | –
